Patent US20130123287A1, “CONTROL AGENT FOR SOFT ROT AND CONTROL METHOD FOR THE SAME” (ISHIHARA SANGYO KAISHA, LTD., priority 2010, published 2013)

Tests used:
[1] = system: soft rot of Chinese cabbage; assay: Test for controlling soft rot of Chinese cabbage, Example 1 / Comparative Example 1 (field, cultivar Muso); type: in vivo; conditions: 1/1000 dilution, 300 L/10a sprayed three times on stems and leaves, 54 days after start
Protocol: 200 g/l Azoxystrobin (Amistar 20 FLOWABLE [trade name], manufactured by Syngenta Japan K.K.) was adjusted to 250 g ai/10a (0.25 g/m^2, 1250 ml Product/10a) as the amount of the active ingredient and to 150 L/10a as the volume of diluent water.
100 g/l Cyazofamid (RANMAN FLOWABLE [trade name], manufactured by Ishihara Sangyo Kaisha, Ltd.) was adjusted to 250 g ai/10a (0.25 g/m^2, 2500 ml Product/10a) as the amount of the active ingredient and to 150 L/10a as the volume of diluent water.
177 g/l Amisulbrom (LEIMAY FLOWABLE [trade name], manufactured by Nissan Chemical Industries, Ltd.) was adjusted individually to 250 g ai/10a (0.25 g/m^2, 1412 ml Product/10a) as the amount of the active ingredient and to 150 L/10a as the volume of diluent water.
After spreading an agricultural mulch-sheet and opening planting holes (diameter of about 9 cm) for permanent planting through the mulch-sheet, the spray solutions prepared as described above were sprayed onto the planting holes such that the amount of treated active ingredient of each spray solution was 0.25 g/m^2 (150 L per 10a), followed by air-drying; subsequently, seedlings of Chinese cabbage (cultivar: Muso) grown for 4 weeks in cell mold trays (128 holes/nursery box) were planted such that 30 seedlings were planted in each test lot having an area of 6 m^2 with two replications.
Preparation was performed by diluting streptomycin (Mycin 20 wettable powder solution [under the trade name] manufactured by Hokko Chemical Industry Co., Ltd.) with water to 1/1000.
In a field spread with the agricultural mulch-sheet, Chinese cabbage seedlings (cultivar: Muso) grown by the same method as in Example 1 were planted by the same method as in Example 1, for spraying the spray solution of streptomycin prepared above in (1) (at each spray volume of 300 L/10a) three times (13 days, 20 days and 27 days after the planting of the seedlings) on the stems and leaves.
54 days after the start of the tests, all the plants in each lot were examined about the severity level of the disease; according to the following equations, the ratio of the plants with the onset of the disease, the frequency of the disease, and the disease control value were calculated to determine and rank the effects at A to D levels. Because soft rot is a disease with damages hardly controlled, herein, even a chemical at the level C determined by the tests of the effects can practically be used.
Ratio of the plants with the onset of the disease=(Number of plants with the onset of the disease/number of plants examined)*100
Frequency of the disease=[sigma(number of plants with the onset of the disease at each severity level*index of the onset of the disease)/(plants examined*4)]*100 […]

[2] = system: bacteria causing the soft rot (Erwinia carotovora); assay: Inhibition test of growth of bacteria causing soft rot, Reference Test Example 1; type: cell-based; conditions: for formed colonies (growth state), grade: PSA medium, 25 degrees Celsius, 4 days
Protocol: (§1) An inhibition test of the growth of bacteria causing the soft rot was done, when a control agent was directly applied to the bacteria causing the soft rot. A given volume of each pesticide of cyazofamid (RANMAN 400SC [trade name] manufactured by Ishihara Sangyo Kaisha, Ltd.), amisulbrom (LEIMAY FLOWABLE [trade name], manufactured by Nissan Chemical Industries, Ltd.) and streptomycin (Mycin Wettable powder [trade name] manufactured by Hokko Chemical Industry Co., Ltd.) was added together with a suspension of the bacteria causing the soft rot (Erwinia carotovora) to a preliminarily dissolved PSA culture medium (55 degrees Celsius) for subsequent thorough agitation, which was then spread on a plate for culturing at 25 degrees Celsius for 4 days, to examine the growth state. Subsequently, the formed colonies were examined according to the following three grades. • +: at the same level as the level of non-treated lot.
(§2) Plus or minus: apparently less than the colonies of the non-treated lot. • −: almost no colonies observed.

[3] = system: bacteria causing the soft rot (Erwinia carotovora); assay: Inhibition test of growth of bacteria causing soft rot, Reference Test Example 2; type: cell-based; conditions: for formed colonies (growth state), grade: PSA medium, 27 degrees Celsius, 2 days
Description: as §1, with “Inhibition test of growth of bacteria causing soft rot of potato An” for “An”, “azoxystrobin (Amistar-20” for “cyazofamid (RANMAN 400SC [trade name] manufactured by Ishihara Sangyo Kaisha, Ltd.), amisulbrom (LEIMAY”, “Syngenta Japan K.K.), penthiopyrad (GAIA WG [trade name], manufactured by Mitsui Chemicals Agro, Inc.), flusulfamide (SCABLOCK SC [trade name] manufactured by Mitsui Chemicals Agro, Inc.),” for “Nissan Chemical Industries, Ltd.)”, “27” for “25”, “2” for “4”
as §2

[4] = system: bacteria causing the soft rot (Erwinia carotovora); assay: Inhibition test of growth of bacteria causing soft rot, Reference Test Example 4; type: cell-based; conditions: for formed colonies (growth state), grade: PSA medium, 27 degrees Celsius, 2 days
Description: An inhibition test of the growth of bacteria causing the soft rot was done, when a control agent was directly applied to the bacteria causing the soft rot. A given volume of each pesticide of kresoxim-methyl (STROBY DF [trade name] manufactured by BASF), thiophanate methyl (Topsin M WP [trade name], manufactured by Nippon Soda Co., Ltd), boscalid (Cantus DF [trade name] manufactured by BASF), procymidone (Sumilex WP [trade name] manufactured by Sumitomo Chemical Agro Co., Ltd.) and streptomycin (Mycin Wettable powder [trade name] manufactured by Hokko Chemical Industry Co., Ltd.) was added together with a suspension of the bacteria causing the soft rot (Erwinia carotovora) to a preliminarily dissolved PSA culture medium (55 degrees Celsius) for subsequent thorough agitation, which was then spread on a plate for culturing at 27 degrees Celsius for 2 days, to examine the growth state. Subsequently, the formed colonies were examined according to the following three grades. • +: at the same level as the level of non-treated lot. Plus or minus: apparently less than the colonies of the non-treated lot. • −: almost no colonies observed.

[5] = active ingredient concentration of 1 ppm

[H]/N=C(/N)N[C@H]1[C@H](O)[C@@H](O)[C@H](O[C@@H]2O[C@@H](C)[C@](O)(C=O)[C@H]2O[C@@H]2O[C@@H](CO)[C@H](O)[C@@H](O)[C@@H]2NC)[C@@H](N/C(N)=N\[H])[C@@H]1O [Streptomycin]
Determination of effect [1]: D (D: Poorly effective (20 or smaller disease control value)) | formed colonies (growth state), grade ([2]; 1 ppm active ingredient): −, − | formed colonies (growth state), grade ([2]; 10 ppm active ingredient): −, − | direct antibacterial activity against Erwinia carotovora (in words) [2, 5]: exerted a direct antibacterial activity | formed colonies (growth state), grade ([3]; 1 ppm active ingredient): −, − | formed colonies (growth state), grade ([3]; 10 ppm active ingredient): −, − | direct antibacterial activity against Erwinia carotovora (in words) [3, 5]: exerted a direct antibacterial activity | formed colonies (growth state), grade ([4]; 1 ppm active ingredient): −, − | formed colonies (growth state), grade ([4]; 10 ppm active ingredient): −, − | direct antibacterial activity against Erwinia carotovora (in words) [4, 5]: exerted a direct antibacterial activity
